The values that follow come from publication PMC7072517 (Biomolecules, 2020).

Data set [1] has as its target T1, soluble epoxide hydrolase (sEH) (Homo sapiens, UniProt P34913).
T1 construct: purchased Cayman (Ann Arbor, MI, USA) 10011669
T1 sequence (P34913 1-555): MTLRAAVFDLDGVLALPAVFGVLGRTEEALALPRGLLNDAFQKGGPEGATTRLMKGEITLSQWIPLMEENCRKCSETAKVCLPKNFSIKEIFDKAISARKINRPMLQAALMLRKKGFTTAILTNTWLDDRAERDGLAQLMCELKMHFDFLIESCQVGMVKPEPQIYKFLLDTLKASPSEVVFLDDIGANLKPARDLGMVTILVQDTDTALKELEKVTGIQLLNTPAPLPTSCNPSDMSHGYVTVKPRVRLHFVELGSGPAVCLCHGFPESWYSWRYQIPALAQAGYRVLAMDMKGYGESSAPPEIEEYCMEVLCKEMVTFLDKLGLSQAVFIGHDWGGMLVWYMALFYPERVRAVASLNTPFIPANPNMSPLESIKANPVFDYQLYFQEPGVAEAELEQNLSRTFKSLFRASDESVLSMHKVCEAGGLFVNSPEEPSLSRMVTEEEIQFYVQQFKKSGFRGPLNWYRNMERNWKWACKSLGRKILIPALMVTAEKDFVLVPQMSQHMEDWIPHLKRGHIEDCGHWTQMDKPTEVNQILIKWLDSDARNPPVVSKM
The note with it: cited from earlier work.

The target of data set [2] is T1, soluble epoxide hydrolase (sEH). Kind of data set: sEH enzyme kinetics (Lineweaver–Burk and Dixon plots). Type of data set: biochemical. Conditions: for Binding Mode (inhibition type): Lineweaver–Burk plot, substrate 1–12.5 µM. The protocol: sEH (130 µL, ~16 ng/mL) in 25 mM bis-Tris-HCl buffer (pH 7.0) containing 0.1% BSA and 20 µL of compound in MeOH was mixed in a 96-well plate, followed by the addition of 50 µL buffer containing 5 µM PHOME. The reactions were carried out at 37°C for 40 min. The inhibitory ratio was calculated according to the following equations: Inhibitory activityrate (%) = [[…]] × 100(1) where ΔC andΔS represent the intensity of control and inhibitor after 40 min, respectively. y = y0 + [(a × x)/(b + x)](2) where y0 is the minimum value on the y-axis, a denotes the difference between maximum and minimum values, and b refers to the x value at 50%.
The inverse of these concentrations and v0 values were used for the Lineweaver–Burk plot. […] Furthermore, the Dixon plot is represented by the modified Lineweaver–Burk plot.

The target is the same in data set [3]. Kind of data set: sEH inhibition assay (PHOME substrate, fluorescence). Type of data set: biochemical. Conditions: 5 µM PHOME, 37°C, 40 min, pH 7.0; n = 3; read-out: IC50, inhibitory activity on sEH (converted). The protocol:
The reactions were carried out at 37°C for 40 min. The inhibitory ratio was calculated according to the following equations: Inhibitory activityrate (%) = [(ΔC/ΔS)/ΔC] × 100(1) where ΔC andΔS represent the intensity of control and inhibitor after 40 min, respectively. y = y0 + [(a × x)/(b + x)](2) where y0 is the minimum value on the y-axis, a denotes the difference between maximum and minimum values, and b refers to the x value at 50%.

On the set-up of data set [4]: method as in PMID 19794443. The note with it: cited from earlier work.

Turning to `COc1cc(O)c2c(=O)c(OC)c(-c3ccc(O[C@@H]4O[C@H](CO)[C@@H](O)[C@H](O)[C@H]4O[C@@H]4OCC(O)(CO)[C@H]4O)c(OC)c3)oc2c1` (stereo partly drawn) [3,7,3′-tri-O-methylquercetin-4′-O-β-D-apiofuranosyl-(1→2)-O-β-D-glucopyranoside], the “inhibition type on sEH” value in data set [1] is “non-competitive”. `O=c1c(O)c(-c2ccc(O)cc2)oc2cc(O)cc(O)c12` [kaempferol]: the “inhibition type on sEH” value in data set [1] is on record as “non-competitive”. On to `COc1cc(-c2cc(=O)c3c(O)cc(O)cc3o2)ccc1O` [compound 1, chrysoeriol], for which the “Binding Mode (inhibition type)” value in data set [2] was “Non-competitive type”. By Ki is commonly meant the equilibrium dissociation constant of an inhibitor or competing ligand from its target. For orientation: IC50 means the concentration at which inhibition is half-maximal. In data set [2] (Dixon plot), `O=c1cc(-c2ccc(O)c(O)c2)oc2cc(O[C@@H]3O[C@H](CO)[C@@H](O)[C@H](O)[C@H]3O)cc(O)c12` [compound 2, luteolin-7-O-glucopyranoside] showed an inhibition constant (Ki) of 26.5 µM. For the same compound, in data set [2], the “Binding Mode (inhibition type)” value is on record as “Non-competitive type”. The half-maximal inhibitory concentration (IC50) in data set [3] is 32.1 µM. For the compound `O=c1c(O[C@@H]2O[C@H](CO)[C@H](O)[C@H](O)[C@H]2O)c(-c2ccc(O)c(O)c2)oc2cc(O)cc(O)c12` [quercetin-3-O-β-D-galactoside], the “inhibition type on sEH” value in data set [1] is listed as “non-competitive”. For `O=C(O)CCCCCCCCCCCNC(=O)NC12CC3CC(CC(C3)C1)C2` [AUDA, 12-(3-adamantan-1-yl-ureido)dodecanoic acid], in data set [4], the solubility result was “low”. For `O=c1cc(-c2ccc(O)cc2)oc2cc(O)cc(O)c12` [apigenin], in data set [1], the “inhibition type on sEH” value was “non-competitive”.
